Where “and” joins values, the source holds several entries; their conditions need not be identical. Identical values can stand only once.

From US20210355104A1, “ADENOSINE RECEPTOR BINDING COMPOUNDS” (Nikang Therapeuticsm Inc., priority 2018, published 2021) come the findings set out here.

Test [1] addresses T1, Adenosine A2A receptor (Homo sapiens, UniProt P29274). In words: Adenosine A2A receptor competitive binding assay (Tag-lite HTRF). To be noted: Tag-lite adenosine A2A receptor ligand binding. How it is done: Adenosine A2A Receptor Competitive Binding Assay
The Tag-lite adenosine A2A receptor ligand binding assay is a homogeneous alternative to radioligand binding assay and developed by Cisbio (Bedford, Mass.). We carried out this assay following Cisbio's instructions with minor modification. Pre-transfected, fluorescent donor-labelled cells (Cisbio Cat#: C1TT1A2A, 200 testes) was stored at −80° C. and thawed right before use. Cells were washed once with 5 ml TLB and gently resuspended in 2 ml TLB. 4 μl suspended cells was dispensed into each well of white low-volume 384-well plate (Greiner Bio-One). Serial dilutions of compounds were prepared in Tag-lite buffer (TLB, Cisbio Cat #: LABMED) to a DMSO concentration of 0.6%. After adding 4 μl of compound dilutions to each well, 4 μl60 nM Adenosine A2A receptor red antagonist fluorescent ligand (Cisbio Cat #: L0058RED) was dispensed to each well. The 384-well assay plate was centrifuged briefly and incubated at room temperature for 2 h. HTRF signals were measured using CIARIOstar plate reader (BMG Labtech).
Background: TR-FRET usually uses a lanthanide donor and a delayed reading to cut background.

Test [2] deals with T1, Adenosine A2A receptor. In words: cAMP assay in 293A cells stably expressing the adenosine A2A receptor (CGS21680 stimulation, HTRF). Type of test: cell-based. More on the design: expressed in transfected cells; host or cells: 293A cells (Invitrogen, Cat# R705-07) infected with A2A-expressing lentivirus (custom packaged by Biosettia), puromycin selected. The following applies: 293A-A2AR cells, 0.1% BSA.

Where [3] appears, read: 2 h room temperature, values separated by / are repeat determinations.
Setting [4] is: 8 nM CGS, values separated by / are repeat determinations, read-out: cAMP (nM) 0.1% BSA, 8 nM CGS.
[5] abbreviates: 1 uM CGS, read-out: cAMP (nM) 0.1% BSA, 1 uM CGS.
The mark [6] stands for this setting: 1 uM CGS, values separated by / are repeat determinations, read-out: cAMP (nM) 0.1% BSA, 1 uM CGS.

T1 sequence (P29274 whole entry): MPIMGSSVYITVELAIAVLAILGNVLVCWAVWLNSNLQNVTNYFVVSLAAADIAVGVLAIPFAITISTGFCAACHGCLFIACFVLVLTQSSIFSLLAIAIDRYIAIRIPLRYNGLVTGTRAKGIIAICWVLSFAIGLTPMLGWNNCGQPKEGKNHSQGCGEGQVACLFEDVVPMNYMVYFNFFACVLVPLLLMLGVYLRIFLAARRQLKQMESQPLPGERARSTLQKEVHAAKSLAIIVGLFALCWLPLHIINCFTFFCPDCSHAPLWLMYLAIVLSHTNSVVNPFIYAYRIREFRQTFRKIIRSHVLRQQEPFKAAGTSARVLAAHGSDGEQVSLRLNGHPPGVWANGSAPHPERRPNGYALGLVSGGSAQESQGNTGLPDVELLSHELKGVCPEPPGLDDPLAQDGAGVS

In the case of `CNC(=O)NCCOc1nc(N)nc(-c2ccc(F)cc2)c1-c1cc(C)nc(C(F)F)c1` [Example 113, 1-(2-((2-amino-5-(2-(difluoromethyl)-6-methylpyridin-4-yl)-6-(4-fluorophenyl)pyrimidin-4-yl)oxy)ethyl)-3-methylurea], the IC50 was 8.9 nM in test [1] (setting [3]); 16 nM and 7.5 nM in test [2] (setting [4]).

For the molecule `COC(=O)N1CCC(COc2nc(N)nc(-c3ccc(F)cc3)c2-c2cc(C)nc(C(F)F)c2)CC1` [Example 106, methyl 4-(((2-amino-5-(2-(difluoromethyl)-6-methylpyridin-4-yl)-6-(4-fluorophenyl)pyrimidin-4-yl)oxy)methyl)piperidine-1-carboxylate], the results for the IC50 in test [1] (setting [3]) and in test [2] (setting [4]) were 38 nM and 43 nM, respectively.

Take `Cc1cc(-c2c(OCc3ccc(C(C)(C)O)cn3)nc(N)nc2-c2ccc(F)cc2)cc(C(F)F)n1` [Example 217, 2-(6-(((2-amino-5-(2-(difluoromethyl)-6-methylpyridin-4-yl)-6-(4-fluorophenyl)pyrimidin-4-yl)oxy)methyl)pyridin-3-yl)propan-2-ol]: the IC50 in test [1] (HTRF) worked out at 21 nM; in test [2] (setting [5]), 6500 nM.

Turning to `Cc1cc(-c2c(OCC(=O)NC(C)C)nc(N)nc2-c2ccc(F)cc2)cc(C(F)F)n1` [Example 41, 2-((2-amino-5-(2-(difluoromethyl)-6-methylpyridin-4-yl)-6-(4-fluorophenyl)pyrimidin-4-yl)oxy)-N-isopropylacetamide], the values for the IC50 in test [1] (setting [3]) and in test [2] (setting [4]) were 6.7 nM and 4.1 nM, respectively.

With `Cc1cc(-c2c(OCCNc3ccccn3)nc(N)nc2-c2ccc(F)cc2)cc(C(F)F)n1` [Example 94, 5-(2-(difluoromethyl)-6-methylpyridin-4-yl)-4-(4-fluorophenyl)-6-(2-(pyridin-2-ylamino)ethoxy)pyrimidin-2-amine], the IC50 in test [1] (setting [3]) is 2.4 nM; in test [2] (setting [4]), 0.39 nM and 2.9 nM.

Turning to `COC(=O)NCCOc1nc(N)nc(-c2ccc(F)cc2)c1-c1cc(C)nc(C(F)F)c1` [Example 116, methyl(2-((2-amino-5-(2-(difluoromethyl)-6-methylpyridin-4-yl)-6-(4-fluorophenyl)pyrimidin-4-yl)oxy)ethyl)carbamate], the IC50 in test [1] (setting [3]) is 7.3 nM; in test [2] (setting [4]), 4.7 nM and 3.2 nM.

With `Cc1cc(-c2c(OCCN3CCN(C4COC4)CC3)nc(N)nc2-c2ccc(F)cc2)cc(C(F)F)n1` [Example 52, 5-(2-(difluoromethyl)-6-methylpyridin-4-yl)-4-(4-fluorophenyl)-6-(2-(4-(oxetan-3-yl)piperazin-1-yl)ethoxy)pyrimidin-2-amine], the IC50 in test [1] (setting [3]) was 120 nM; in test [2] (setting [4]), 532 nM.

Consider `Cc1cc(-c2c(OCC(=O)NCC(F)(F)F)nc(N)nc2-c2ccc(F)cc2)cc(C(F)F)n1` [Example 161, 2-((2-amino-5-(2-(difluoromethyl)-6-methylpyridin-4-yl)-6-(4-fluorophenyl)pyrimidin-4-yl)oxy)-N-(2,2,2-trifluoroethyl)acetamide], for which the results for the IC50 in test [1] (setting [3]) and in test [2] (setting [4]) were 44 nM and 14 nM, respectively.

Turning to `Cc1cc(-c2c(OCC(C)(C)C(=O)O)nc(N)nc2-c2ccc(F)cc2)cc(C(F)F)n1` [Example 61, 3-((2-amino-5-(2-(difluoromethyl)-6-methylpyridin-4-yl)-6-(4-fluorophenyl)pyrimidin-4-yl)oxy)-2,2-dimethylpropanoic acid], the IC50 stood at 280 nM in test [1] (setting [3]) and 233 nM in test [2] (setting [4]).

Turning to `Cc1cc(-c2c(O[C@@H](C)CO)nc(N)nc2-c2ccc(F)cc2)cc(C(F)F)n1` [Example 76, (S)-2-((2-amino-5-(2-(difluoromethyl)-6-methylpyridin-4-yl)-6-(4-fluorophenyl)pyrimidin-4-yl)oxy)propan-1-ol], the IC50 in test [1] (setting [3]) stood at 19 nM; in test [2] (setting [4]) it was 3.2 nM.

For `CCN(CCOc1nc(N)nc(-c2ccc(F)cc2)c1-c1cc(C)nc(C(F)F)c1)c1ncccn1` [Example 146, 5-(2-(difluoromethyl)-6-methylpyridin-4-yl)-4-(2-(ethyl(pyrimidin-2-yl)amino)ethoxy)-6-(4-fluorophenyl)pyrimidin-2-amine], the IC50 in test [1] (setting [3]) worked out at 4 nM; in test [2] (setting [4]), 5.6 nM.

On to `CNC(=O)COc1nc(N)nc(-c2ccc(F)cc2)c1-c1cc(C)nc(C(F)F)c1` [Example 32, 2-((2-amino-5-(2-(difluoromethyl)-6-methylpyridin-4-yl)-6-(4-fluorophenyl)pyrimidin-4-yl)oxy)-N-methylacetamide], for which the IC50 in test [1] (setting [3]) was 13.9 nM; in test [2] (setting [4]), 6.1 nM and 6.7 nM.

Consider `CNC(=O)OCCOc1nc(N)nc(-c2ccc(F)cc2)c1-c1cc(C)nc(C(F)F)c1` [Example 143, 2-((2-amino-5-(2-(difluoromethyl)-6-methylpyridin-4-yl)-6-(4-fluorophenyl)pyrimidin-4-yl)oxy)ethyl methylcarbamate], for which the IC50 in test [1] (setting [3]) came out at 11.7 nM; in test [2] (setting [4]), 8.1 nM.

As for `COC(=O)N1CCN(CCOc2nc(N)nc(-c3ccc(F)cc3)c2-c2cc(C)nc(C(F)F)c2)CC1` [Example 51, methyl 4-(2-((2-amino-5-(2-(difluoromethyl)-6-methylpyridin-4-yl)-6-(4-fluorophenyl)pyrimidin-4-yl)oxy)ethyl)piperazine-1-carboxylate], the IC50 in test [1] (setting [3]) was 10 nM; in test [2] (setting [4]), 3.9 nM.

For `Cc1cc(-c2c(OCC(=O)NCc3ccccc3)nc(N)nc2-c2ccc(F)cc2)cc(C(F)F)n1` [Example 84], the values for the IC50 in test [1] (setting [3]) and in test [2] (setting [4]) were 17 nM and 8.7 nM, respectively.

In the case of `Cc1cc(-c2c(OCc3cc(C(C)(C)O)ccn3)nc(N)nc2-c2ccc(F)cc2)cc(C(F)F)n1` [Example 224, 2-(2-(((2-amino-5-(2-(difluoromethyl)-6-methylpyridin-4-yl)-6-(4-fluorophenyl)pyrimidin-4-yl)oxy)methyl)pyridin-4-yl)propan-2-ol], the IC50 in test [1] (HTRF) is 9.5 nM; in test [2] (setting [5]), 1320 nM.

On to `CNS(=O)(=O)NCCOc1nc(N)nc(-c2ccc(F)cc2)c1-c1cc(C)nc(C(F)F)c1` [Example 115], for which the IC50 in test [1] (setting [3]) amounted to 19 nM; in test [2] (setting [4]) it was 9.9 nM; in test [2] (setting [6]), 820 nM.

Turning to `Cc1cc(-c2c(OCCNc3ccccc3)nc(N)nc2-c2ccc(F)cc2)cc(C(F)F)n1` [Example 82, 5-(2-(difluoromethyl)-6-methylpyridin-4-yl)-4-(4-fluorophenyl)-6-(2-(phenylamino)ethoxy)pyrimidin-2-amine], the IC50 in test [1] (setting [3]) worked out at 16 nM; in test [2] (setting [4]), 1.6 nM; in test [2] (setting [6]) it was 936 nM.

For `CCN(CC)C(=O)[C@@H](C)Oc1nc(N)nc(-c2ccccc2)c1-c1cc(C)nc(C(F)(F)F)c1` [Example 13, (R)-2-((2-amino-5-(2-methyl-6-(trifluoromethyl)pyridin-4-yl)-6-phenylpyrimidin-4-yl)oxy)-N,N-diethylpropanamide], the IC50 in test [1] (setting [3]) amounted to 303 nM; in test [2] (setting [4]) it was 161 nM.

As for `Cc1cc(-c2c(OCC(=O)O)nc(N)nc2-c2ccc(F)cc2)cc(C(F)F)n1` [Example 71, 2-((2-amino-5-(2-(difluoromethyl)-6-methylpyridin-4-yl)-6-(4-fluorophenyl)pyrimidin-4-yl)oxy)acetic acid], the IC50 in test [1] (setting [3]) and in test [2] (setting [4]) was above 1000 nM each time.

Regarding `Cc1cc(-c2c(OCCc3ccc(N4CCN(C)CC4)cc3)nc(N)nc2-c2ccc(F)cc2)cc(C(F)F)n1` [Example 57, 5-(2-(difluoromethyl)-6-methylpyridin-4-yl)-4-(4-fluorophenyl)-6-(4-(4-methylpiperazin-1-yl)phenethoxy)pyrimidin-2-amine], the IC50 was 2 nM and 14 nM in test [1] (setting [3]); 1.7 nM in test [2] (setting [4]).

`CCNC(=O)NCCOc1nc(N)nc(-c2ccc(F)cc2)c1-c1cc(C)nc(C(F)F)c1` [Example 60, 1-(2-((2-amino-5-(2-(difluoromethyl)-6-methylpyridin-4-yl)-6-(4-fluorophenyl)pyrimidin-4-yl)oxy)ethyl)-3-ethylurea]: the IC50 was 3.6 nM and 8.8 nM in test [1] (setting [3]); 1.7 nM and 2.2 nM in test [2] (setting [4]).

Turning to `Cc1cc(-c2c(OCc3cn(C(C)C)nn3)nc(N)nc2-c2ccc(F)cc2)cc(C(F)F)n1` [Example 208, 5-(2-(difluoromethyl)-6-methylpyridin-4-yl)-4-(4-fluorophenyl)-6-((1-isopropyl-1H-1,2,3-triazol-4-yl)methoxy)pyrimidin-2-amine], the IC50 in test [1] (HTRF) is 3.4 nM; in test [2] (8 nM CGS, read-out: cAMP (nM) 0.1% BSA, 8 nM CGS), 1.4 nM and 1 nM; in test [2] (setting [5]), 394 nM.

With `Cc1cc(-c2c(OCCc3ccc(OC4CCN(S(C)(=O)=O)C4)cc3)nc(N)nc2-c2ccc(F)cc2)cc(C(F)F)n1` (stereo not drawn) [Example 66, 5-(2-(difluoromethyl)-6-methylpyridin-4-yl)-4-(4-fluorophenyl)-6-(4-((1-(methylsulfonyl)pyrrolidin-3-yl)oxy)phenethoxy)pyrimidin-2-amine], the IC50 in test [1] (setting [3]) turned out to be 95 nM; in test [2] (setting [4]) it was 337 nM.
